From ChEMBL document CHEMBL3137667, “[Drug-induced liver injury; fourteenth updated edition of the bibliographic database of liver injuries and related drugs]” (Gastroenterol Clin Biol, 2004)

Key:
[1] = human, serum
[2] = Comments (NB not yet translated). [column 'COMMENTAIRES' in source]; conditions: human
[3] = human, serum, 4383 h
[4] = human
[5] = human; remark: listed apart in the source
[6] = human; remark: listed apart in the source
[7] = human, serum; remark: listed apart in the source
[8] = Highest frequency of acute liver toxicity observed during clinical trials, expressed as a percentage. [column '% AIGUE' in source]; conditions: human
[9] = human; remark: listed apart in the source
[10] = human; remark: listed apart in the source
[11] = Times to onset, minimal and maximal, observed in the indexed observations. [column 'DELAI' in source]; conditions: human
[12] = human; remark: listed apart in the source
[13] = human; remark: listed apart in the source
[14] = human; remark: listed apart in the source
[15] = Highest frequency of moderate liver toxicity observed during clinical trials, expressed as a percentage. [column '% BIOL' in source]; conditions: human
[16] = human; remark: listed apart in the source
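For Hepatotoxicity (association with vascular disease) in this document: count of indexed literature references reporting vascular liver injury in humans, e.g. peliosis hepatitis, hepatic veno-occlusive disease or Budd-Chiari syndrome.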
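For Hepatotoxicity (benign tumour) in this document: value is a count of indexed literature references citing a benign tumour confirmed by histopathology.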
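For Hepatotoxicity (choleostasis) in this document: human cholestatic liver injury, shown by histopathology or by peak ALT or AST elevation over alkaline phosphatase ratio below 2, value counts indexed literature reports.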
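For Hepatotoxicity (chronic liver disease) in this document: chronic liver injury confirmed by histopathology or persistently raised serum aminotransferase activity beyond 6 months, value given as the count of indexed literature references.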
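For Hepatotoxicity (cirrhosis) in this document: value is a count of indexed literature references reporting cirrhosis confirmed by histopathology.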
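For Hepatotoxicity (cytolytic) in this document: human cytolytic liver injury, shown by histopathology or by a ratio above 5 of peak ALT or AST elevation to alkaline phosphatase elevation, value counts indexed references.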
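For Hepatotoxicity (granulomatous hepatitis) in this document: value is a count of indexed literature references reporting granulomatous liver disease confirmed by histopathology.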
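For Hepatotoxicity (malignant tumour) in this document: malignant tumour confirmed by histopathology, value gives the count of indexed literature references reporting it.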
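For Hepatotoxicity (severe hepatitis) in this document: human clinical data: severe hepatitis, meaning potentially life-threatening liver failure or clinically observed cases, the value counts how many indexed literature references report it.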
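For Hepatotoxicity (steatosis) in this document: steatosis confirmed by histopathology, value is the count of indexed references.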

SMILES	Hepatotoxicity (acute) [1]	Hepatotoxicity (comment) [2]	Hepatotoxicity (chronic liver disease) [3]	Hepatotoxicity (malignant tumour) [4]	Hepatotoxicity (cirrhosis) [5]	Hepatotoxicity (moderate) [7]	Hepatotoxicity (benign tumour) [9]	Hepatotoxicity (time to onset) [11]	Hepatotoxicity (association with vascular disease) [13]	Hepatotoxicity (steatosis) [16]	Hepatotoxicity (cytolytic) [6]	Hepatotoxicity (acute) [8]	Hepatotoxicity (choleostasis) [10]	Hepatotoxicity (severe hepatitis) [12]	Hepatotoxicity (granulomatous hepatitis) [14]	Hepatotoxicity (moderate) [15]	other results
NCCCC(O)(P(=O)(O)O)P(=O)(O)O [ALENDRONIC ACID]	3	AC_ANTI-ML	0	0	0	2	0	2 months - 6 months	0	0	–	–	–	–	–	–	Hepatotoxicity (cytolytic) ([6]; Liver): 3; Hepatotoxicity (acute) ([8]; Liver): 0%; Hepatotoxicity (choleostasis) ([10]; Liver): 0; Hepatotoxicity (severe hepatitis) ([12]; Liver): 1; Hepatotoxicity (granulomatous hepatitis) ([14]; Liver): 0; Hepatotoxicity (moderate) ([15]; Liver): 1.6%
O=c1cc(Cc2ccccc2)[nH]c(=S)[nH]1 [BENZYLTHIOURACIL]	1	RC/CARBIMAZOLE	0	0	0	1	0	1 month - 2 months	0	0	0	0%	1	0	0	0%	–
CC(C)(Oc1ccc(CCNC(=O)c2ccc(Cl)cc2)cc1)C(=O)O [BEZAFIBRATE]	2	I/PERHEXILINE	0	0	0	5	0	3 weeks - 3 months	0	0	1	0%	0	1	0	10%	–
Nc1c(CC(=O)O)cccc1C(=O)c1ccc(Br)cc1 [BROMFENAC]	7	AC_ANTI-N	0	0	0	0	0	2 weeks - 8 months	0	0	7	0%	0	7	0	0%	–
CS(=O)(=O)OCCCCOS(C)(=O)=O [BUSULFAN]	6	HNR(I/THIOGUANINE) MVO	0	0	1	11	0	2 days - 6 years	42	0	3	6.7%	3	4	0	100%	–
CCN1CCN(C(=O)N[C@@H](C(=O)N[C@@H]2C(=O)N3C(C(=O)O)=C(CSc4nnnn4C)CS[C@H]23)c2ccc(O)cc2)C(=O)C1=O [CEFOPERAZONE]	0	CHOLANGITE	0	0	0	15	0	23 days	0	0	0	–	0	–	0	–	Hepatotoxicity (acute) ([8]; Liver): 0%; Hepatotoxicity (severe hepatitis) ([12]; Liver): 1; Hepatotoxicity (moderate) ([15]; Liver): 20%
NS(=O)(=O)c1cc2c(cc1Cl)N=CNS2(=O)=O [CHLOROTHIAZIDE]	5	#CBP	0	0	1	0	0	2 weeks - 2 years	0	0	0	0%	5	1	0	0%	–
c1ccc(C2(c3ccccc3)CC2C2=NCCN2)cc1 (stereo not drawn) [CIFENLINE]	2	CHOLANGITE	0	0	0	2	0	47 days - 5.5 months	0	0	2	0%	0	0	0	4.1%	–
CC(C)(Oc1ccc(C2CC2(Cl)Cl)cc1)C(=O)O (stereo not drawn) [CIPROFIBRATE]	3	AC_ANTI-N	1	0	1	7	0	24 days - 15 months	0	0	2	0%	1	1	0	7.7%	–
O=C(O)C1N=C(c2ccccc2)c2cc(Cl)ccc2NC1=O (stereo not drawn) [CLORAZEPIC ACID]	3	CHOLESTASE_PROLONGEE	0	0	0	0	0	2 months - 3 months	0	0	2	0%	3	0	0	0%	–
O=C(O)c1cc(=O)c2c(OCC(O)COc3cccc4oc(C(=O)O)cc(=O)c34)cccc2o1 [CROMOLYN]	0	#CBP	0	0	1	1	0	4 months - 10 months	0	0	0	0%	0	0	1	16.7%	–
CC(CN(C)C)CN1c2ccccc2Sc2ccc(C#N)cc21 (stereo not drawn) [CYAMEMAZINE]	4	CHOLANGITE #CIRROSE_BILIAIRE RC/DESIPRAMINE/TRIMIPRAMINE	0	0	0	0	0	2 days - 7 weeks	0	0	1	0%	3	1	1	0%	–
C[C@@H]1C[C@H]2[C@@H]3CCC4=CC(=O)C=C[C@]4(C)[C@@]3(F)[C@@H](O)C[C@]2(C)[C@@]1(O)C(=O)CO [DEXAMETHASONE]	0	HEPATOMEGALIE	0	0	0	2	0	8 days - 18 days	0	0	0	0%	0	0	0	24%	–
